Experiment in all cases: DTP human tumour cell line panel, 48 h
Experiment [1] deals with NCI-H226 lung.
The subject of experiment [2] is HCT-116 colon.
For experiment [3], the system named is SK-OV-3 ovarian.
Experiment [4] relates to OVCAR-8 ovarian.
The subject of experiment [5] is A549 NSCLC.
Experiment [6] concerns KM12 colon.
Experiment [7] has as its system COLO 205 colon.
The test system of experiment [8] is HOP-62 NSCLC.
The test system of experiment [9] is HOP-92 NSCLC.

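All cell lines were grown in 96-well plates and treated with compound for 48 hours. Abbreviation: GI50, concentration required for 50% inhibition of growth. TGI denotes the concentration required for complete inhibition of growth.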

As to `O=Cc1ccc2c(c1-c1c(C=O)ccc3c1OCO3)OCO2`, the TGI in experiment [1], in experiment [2], in experiment [3], in experiment [4], in experiment [5] and in experiment [6] was over 100 µM each time. Moreover, the TGI in [7] and in experiment [8] was over 100 µM each time.

As to `CC(=O)[O][Ga]([Br])[O]C(C)=O`, the GI50 in experiment [1], in experiment [2], in [3], in experiment [9], in [4] and in experiment [5] was over 100 µM each time. In addition, the GI50 – broadly, the concentration giving 50% growth inhibition – is over 100 µM in experiment [6] and over 100000 nM in experiment [7]. For the same compound, the TGI in experiment [1], in experiment [2], in experiment [3], in [9], in experiment [4] and in [5] was over 100 µM in each case. The TGI in experiment [6] and in [7] was over 100 µM in each case.

For `CCCO/S(=N\S(=O)(=O)c1ccccc1)c1ccccc1[N+](=O)[O-]` (centres undefined), the TGI in experiment [1], in [2], in [3], in experiment [4], in experiment [5] and in experiment [6] was over 100 µM each time. Besides, the TGI in experiment [7] and in experiment [8] was over 100 µM each time.

In the case of `N#CC(C(=O)C(=O)Nc1ccc(Cl)cc1)c1ccccc1` (centres undefined), the TGI in [1], in experiment [2], in experiment [3], in [9], in [5] and in experiment [6] was over 100 µM each time. In addition, the total growth inhibition concentration (TGI) in experiment [7] and in experiment [8] was over 100 µM in each case.

With `CC(C)N(CCn1c2c3ccccc3ccc2c2oc(=O)c3ccccc3c21)C(C)C`, the TGI (commonly the concentration giving total growth inhibition) in experiment [1] was over 100 µM; in [2] it was over 100 µM; in [3], over 100 µM; in [9], over 92.3 µM; in experiment [4], over 100 µM; in experiment [5] it was over 100 µM. Moreover, the results for the TGI in experiment [6], in experiment [7] and in experiment [8] were over 100 µM, over 100 µM and 98.7 µM, respectively.

On to `CCOP(=O)(OCC)OC1C=CC2CCC1C2` (centres undefined), for which the TGI in experiment [1], in [2], in experiment [3], in [4], in experiment [5] and in [6] was over 100 µM each time. Moreover, the TGI in [7] and in experiment [8] was over 100 µM in each case.

On to `Cc1cc(NS(=O)(=O)c2ccc(Nc3c4ccccc4nc4c(C(=O)N5CCN(CCO)CC5)ccc(Cl)c34)cc2)no1`, for which the TGI in [1], in experiment [2], in experiment [3], in [9], in experiment [4] and in [5] was over 100 µM in each case. Further, the TGI in experiment [6], in experiment [7] and in experiment [8] was over 100 µM throughout.

Turning to `S=c1[nH]c(=S)c2nnn(-c3ccccc3)c2[nH]1`, the TGI was over 100 µM in experiment [1]; 4.49 µM in experiment [2]; over 100 µM in [3]; over 100 µM in experiment [9]; over 100 µM in experiment [4]; over 100 µM in experiment [5]. The TGI in [6], in [7] and in [8] was over 100 µM each time.

Turning to `COC(=O)/C=C1\CCC(C)O1` (centres undefined), the TGI in experiment [2], in experiment [3], in experiment [9], in experiment [4], in [5] and in experiment [6] was over 100 µM in each case. Besides, the TGI in [7] and in [8] was over 100 µM each time.

Turning to `CC(C)C(=O)Nc1nc2c(ncn2C2OC(CO)C(O)C2O)c(=O)[nH]1` (centres undefined), the TGI in [1], in [2], in experiment [3], in [9], in experiment [4] and in experiment [5] was over 100 µM in each case. Besides, the TGI in experiment [6], in [7] and in experiment [8] was over 100 µM in each case.

On to `Cc1cc(S(=O)(=O)O)c(NC(=O)C(=O)Cc2cc(=O)oc3cc(O)ccc23)cc1Cl`, for which the TGI in experiment [1], in [2], in [3], in experiment [9], in experiment [4] and in [5] was over 100 µM each time. The TGI in [6], in [7] and in experiment [8] was over 100 µM in each case.

On to `CC1COC(C)(C)P(=O)(c2ccccc2)C1` (centres undefined), for which the TGI in [1], in experiment [2], in experiment [3], in [4], in [5] and in [6] was over 100 µM throughout. Also, the TGI in experiment [7] and in [8] was over 100 µM throughout.

Regarding `CNS(=O)(=O)NNS(=O)(=O)c1ccc(Br)cc1`, the TGI in experiment [1], in experiment [2], in experiment [3], in experiment [9], in experiment [4] and in experiment [5] was over 100 µM in each case. Further, the TGI in experiment [7] and in [8] was over 100 µM throughout.

As for `CC(C)C(=O)NS(=O)(=O)c1ccccc1`, the TGI in experiment [1], in experiment [2], in experiment [3], in [9], in experiment [4] and in [5] was over 100 µM each time. For the same compound, the TGI in [6], in [7] and in experiment [8] was over 100 µM throughout.

As for `CCC1CCc2c(c(=O)oc3c2cc(OC)c2cccc(OC)c23)C1` (centres undefined), the TGI in experiment [1], in experiment [2], in experiment [3], in experiment [4], in [5] and in experiment [6] was over 100 µM in each case. Further, the TGI in [7] and in experiment [8] was over 100 µM throughout.

On to `CC(=O)O[C@H]1CCC2[C@@H]3CCC4Nc5[nH]ncc5C[C@]4(C)C3CC[C@@]21C` (some centres undefined), for which the TGI in experiment [1], in [2], in experiment [3], in [4], in [5] and in [6] was over 100 µM in each case. In addition, the TGI in [7] and in [8] was over 100 µM throughout.

For `COC(=O)[C@H]1C=C[C@@H](C)n2c(=O)c3cc4ccccc4cc3c(=O)n21`, the TGI in [1], in experiment [2], in [3], in [9], in experiment [4] and in experiment [5] was over 100 µM in each case. Further, the TGI in [6], in [7] and in experiment [8] was over 100 µM in each case.

For the compound `O=[N+]([O-])c1ccc(N2N=C(c3ccc(NCc4nc5ccccc5[nH]4)cc3)CC2c2ccco2)cc1` (centres undefined), the TGI is 57.3 µM in experiment [2]; over 100 µM in experiment [3]; over 100 µM in experiment [9]; 57.7 µM in [4]; over 100 µM in [5]; 41.4 µM in [6]. Moreover, the TGI in experiment [7] was 77.9 µM; in [8], over 100 µM.

Consider `Cc1ccc(NC(=O)CSc2nnc(-c3ccc(N=Cc4ccc(Cl)cc4)cc3)o2)cc1`, for which the TGI in experiment [1], in [2], in experiment [3], in [4], in experiment [5] and in [6] was over 100 µM each time. Also, the TGI in [7] and in [8] was over 100 µM throughout.

With `c1ccc2nc3c(nc2c1)sc1ccccc13`, the TGI was 66.8 µM in experiment [1]; over 100 µM in [2]; 29.5 µM in [3]; over 100 µM in experiment [5]; over 100 µM in [6]; over 100 µM in [7]. In addition, the TGI in experiment [8] was 73.6 µM.

Consider `CC(C)N(C(=O)C12C3C4C1(I)C1C2C3(I)C41C(=O)N(C(C)C)C(C)C)C(C)C` (centres undefined), for which the TGI in experiment [1], in [2], in [3], in [9], in [4] and in [5] was over 100 µM each time. Besides, the results for the TGI in experiment [6], in [7] and in experiment [8] were over 62.5 µM, over 100 µM and over 100 µM, respectively.

Turning to `Cc1c(/C=N/NC(=O)c2ccc(Cl)cc2)c(=O)n(-c2ccccc2)n1C`, the TGI in experiment [1], in [2], in experiment [3], in experiment [9], in experiment [4] and in [5] was over 100 µM each time. For the same compound, the TGI in experiment [6], in experiment [7] and in experiment [8] was over 100 µM each time.

Turning to `O=S(=O)(c1ccccc1)C1CN2OC1(S(=O)(=O)c1ccccc1)CC2c1ccc(Br)cc1` (centres undefined), the TGI in [1], in experiment [2], in experiment [3], in [9], in experiment [4] and in [5] was over 100 µM each time. For the same compound, the TGI in experiment [6] and in experiment [8] was over 100 µM each time.

With `COc1c[c]([Hg][O]C(C)=O)c(OC)c(NC(=O)CC(C)=O)[c]1[Hg][O]C(C)=O`, the GI50 is 19.5 µM in experiment [1]; 13.1 µM in experiment [2]; 18.6 µM in experiment [3]; 6.71 µM in experiment [4]; 26 µM in experiment [5]; over 43.2 µM in experiment [6]. Besides, the results for the GI50 in experiment [7] and in experiment [8] were 2370 nM and 20 µM, respectively. Moreover, the total growth inhibition concentration (TGI) in experiment [1] was 42.9 µM; in [2], 34.8 µM; in [3], 32.7 µM; in experiment [4], over 19.9 µM; in experiment [5] it was 45.9 µM; in [6], over 62.1 µM. In addition, in experiment [8], the TGI amounted to 34.4 µM.

For `Cc1nc([N+](=O)[O-])cn1CC(=N)N`, the TGI in [1], in [2], in experiment [4], in [5], in [7] and in experiment [8] was over 100 µM each time.

Take `Cc1ccc(S(=O)(=O)c2ccc(N)cc2)cc1`: the TGI in [2], in experiment [3], in [4], in experiment [5], in experiment [6] and in experiment [8] was over 100 µM throughout.

As to `Cc1cc(C)nc(NS(=O)(=O)c2ccc(NC(=O)c3cccc4c(Nc5ccc(S(N)(=O)=O)cc5)c5ccccc5nc34)cc2)n1`, the TGI is over 100 µM in experiment [1]; 21.7 µM in experiment [2]; 28.4 µM in experiment [3]; 61.1 µM in [9]; over 100 µM in [4]; over 100 µM in experiment [5]. Also, the figures for the TGI in [6], in [7] and in experiment [8] were 47.3 µM, over 62.5 µM and 98.8 µM, respectively.

With `CCCN1CN(C(C(=O)N[C@@H]2C(=O)N3C2SC(C)(C)C3C(=O)O)c2ccc(O)cc2)CSC1=S` (some centres undefined), the TGI in [2], in experiment [3], in experiment [9], in experiment [4], in experiment [6] and in experiment [7] was over 100 µM in each case. In [8], the TGI is over 100 µM.

As to `CN[C@@H](C)[C@@H](NC)c1ccccc1`, the TGI in experiment [1], in experiment [2], in [3], in experiment [9], in [4] and in experiment [5] was over 100 µM throughout. The TGI in experiment [6] and in [7] was over 100 µM in each case.

With `O=C(/C=C/c1ccccc1Cl)NC1C=Nc2ccc([N+](=O)[O-])cc2NC1` (centres undefined), the TGI in experiment [1], in experiment [2], in experiment [3], in experiment [4], in experiment [5] and in experiment [6] was over 100 µM in each case. Further, the TGI in [7] and in [8] was over 100 µM each time.
